Our source for the TGI and GI50 values is PubChem BioAssay (NCI).

The structures appear in SMILES notation.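 1) Cells in 96-well plates. 2) Compound, 48 h, 5 concentrations. 3) Linear interpolation between surrounding doses. 4) Unreached endpoint = highest concentration. GI50: concentration for 50% inhibition of growth. TGI: total growth inhibition.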

What all share (assay): growth of human tumour cells (NCI), 48 h
Test [1] has as its system LXFL 529 NSCLC.
Test [2] concerns M19-MEL melanoma.
The subject of test [3] is KM20L2 colon.
Test [4] relates to DMS 273 small cell lung.
Test [5] has as its system XF 498 CNS.
Test [6] deals with DMS 114 small cell lung.

As to `Cc1c(N)c(C#N)c2n(C)c3ncccc3n2c1=O`, the TGI in test [1], in test [2], in test [3], in test [4] and in test [5] was above 100 µM throughout.
With `CC(=O)[CH-]C(=O)c1ccccc1.CC(=O)[CH-]C(=O)c1ccccc1.CC[C@H](CCC(C)[C@H]1CCC2[C@@H]3CC=C4C[C@@H]([O-])CC[C@]4(C)C3CC[C@@]21C)C(C)C.CC[C@H](CCC(C)[C@H]1CCC2[C@@H]3CC=C4C[C@@H]([O-])CC[C@]4(C)C3CC[C@@]21C)C(C)C.Cl.[Ti+4]` (some centres not stated), the GI50 in test [1], in test [3] and in test [4] was above 25 µM each time. The TGI in test [1], in test [3] and in test [4] was above 25 µM each time.
In the case of `O=C1NC(=S)NC(=O)C1=Cc1ccc([N+](=O)[O-])o1`, the TGI in test [1] was 30.5 µM; in test [2] it was 36.8 µM; in test [3], 43.1 µM; in test [6], 34.6 µM; in test [4] it was 37.8 µM; in test [5], 52.3 µM.
Regarding `[N-]=[N+]=NC1(Cc2ccccc2)C(=O)Nc2ccccc2C1=O` (configuration not stated), the TGI in test [1], in test [2], in test [3], in test [6], in test [4] and in test [5] was above 100 µM each time.
Turning to `CC12CCC(=O)N1[C@@H](c1ccccc1)[C@@H](c1ccccc1)O2` (some centres not stated), the TGI in test [1], in test [2], in test [3], in test [6] and in test [5] was above 100 µM in each case.
Take `C=CCc1cc(OC)c(O)c(C(=O)/C=C/c2ccc(OC)c(OC)c2)c1`: the TGI in test [1] was 54.7 µM; in test [6], 52.1 µM; in test [4] it was above 100 µM; in test [5], 27 µM.
Turning to `CC1=CP(=O)(OC(C)C)C=C(C)C1=C(Cl)Cl` (configuration not stated), the TGI in test [1], in test [2], in test [3], in test [6], in test [4] and in test [5] was above 100 µM in each case.
Regarding `CCCCN(CCCC)CC(C(=O)Nc1ccc([N+](=O)[O-])cc1[N+](=O)[O-])/C(C)=N\NC(=O)c1ccncc1` (configuration not stated), the TGI in test [1], in test [2], in test [3], in test [6], in test [4] and in test [5] was above 100 µM in each case.
Turning to `CCN(CC)CC(C(C)=O)C(c1ccccc1)c1c(O)c2ccccc2oc1=O` (configuration not stated), the TGI in test [1], in test [2], in test [3], in test [6], in test [4] and in test [5] was above 100 µM each time.
With `O=C1C=C(Nc2cc(Cl)ccc2Cl)c2ccccc2C1=O`, the TGI in test [2] was 29.2 µM; in test [3], above 100 µM; in test [6], 76.2 µM; in test [4], 68.6 µM.
As to `CC(=O)NNc1nc(C)c(C(=O)/C=C/c2ccc(N(C)C)cc2)s1`, the TGI in test [3], in test [6] and in test [4] was above 100 µM each time.
Take `COc1ccc(N=Nc2c(-c3ccccc3)nn(C(=O)CC(=O)Nc3ccc(OC)cc3)c2-c2ccccc2)cc1`: the TGI in test [1] was above 100 µM; in test [2], above 100 µM; in test [6], above 100 µM; in test [4] it was above 100 µM; in test [5], 76.1 µM.
